Reference: patent US5593970A, “Heterocyclic anthracycline analogs” (priority 1994, dated 1997)
Values joined by “and” are separate entries in the source; they are usually repeats but may differ in a detail not shown here. Identical values can stand only once. Like-named read-outs stand apart in the source and are kept apart here.

Key:
Test in all cases: NCI sulforhodamine B assay
Type in all cases: cell-based, human
UO-31 = system: UO-31
Description: (§1) These assays were carried out at the Developmental Therapeutics Program, Division of Cancer Treatment, National Cancer Institute (Bethesda, Md., U.S.A.). The method consists of incubating varying concentrations of the drug with an inoculum of cells for two days. […] The 57 cell lines included two mouse leukemia lines (P388 parental and adriamycin resistant) and […] human cell lines.
(§2) It should be noted that the first two parameters (GI50 and TGI) relate to antiproliferation effects while the third one (LC50) indicates true cytotoxicity. A value of -4 or greater is considered to denote resistance (inactivity).

RXF-393L = system: RXF-393L
Description: as §1, §2

OVCAR-4 = system: OVCAR-4
Description: as §1, §2

OVCAR-5 = system: OVCAR-5
Description: as §1, §2

MCF-7 = system: MCF-7
Description: as §1, §2

SN-12C = system: SN-12C
Description: as §1, §2

HCT-15 = conditions: 2880 min
Description: as §1, §2

SNB-19 = conditions: for GI50: read-out: Log10 GI50 (converted)
Description: as §1, §2

SNB-75 = system: SNB-75
Description: as §1, §2

NCl-H23 = system: NCl-H23
Description: as §1, §2

MALMB-3M = system: MALMB-3M
Description: as §1, §2

SK-MEL-5 = system: SK-MEL-5
Description: as §1, §2

MCF-7/ADR = system: MCF-7/ADR
Description: as §1, §2

SF-295 = system: SF-295
Description: as §1, §2

HCC-2998 = system: HCC-2998
Description: as §1, §2

NCl-H226 = system: NCl-H226
Description: as §1, §2

NCl-H460 = system: NCl-H460
Description: as §1, §2

UACC-257 = system: UACC-257
Description: as §1, §2

IGROV-1 = system: IGROV-1
Description: as §1, §2

SF-539 = system: SF-539
Description: as §1, §2

RPMI-8226 = conditions: 2880 min
Description: as §1, §2

COC(=O)C1CC2=C(C(=O)c3c(cc4ccccc4c3O)C2=O)C(O[C@H]2C[C@H](NC(=O)C(F)(F)F)[C@H](O)[C@H](C)O2)O1 (mixture of isomers) [BCH-242, (1'S,1R,3S) and (1'S, 1S,3R)-Methyl[11-hydroxy-1-2',3',6'-trideoxy-3-trifluroacetamido-L-lyxohexopyranose)-5,12-dioxo-3,4,5,12-tetrahydroanthraceno[2,3-c]pyran-3-yl]formate]
Log10 GI50 (UO-31): -5.62 log molar | Log10 LC50 (UO-31; 2880 min): -4.77 log molar | IC100 (RXF-393L; Homo sapiens, 48 h, RXF-393L, read-out: Log10 TGI (converted)): 2.63 µM | CC50 (RXF-393L; Homo sapiens, 48 h, read-out: Log10 LC50, RXF-393L (converted)): 5.37 µM | GI50 (RXF-393L; Homo sapiens, RXF-393L, read-out: Log10 GI50 (converted)): 1.29 µM | Log10 GI50 (RXF-393L; RXF-393L): -6.05 log molar | Log10 TGI (RXF-393L; RXF-393L): -5.67 log molar | Log10 LC50 (RXF-393L; RXF-393L, 2880 min): -5.32 log molar | IC100 (OVCAR-4; Homo sapiens, OVCAR-4, 48 h, OVCAR-4, read-out: Log10 TGI (converted)): 3.31 µM | CC50 (OVCAR-4; Homo sapiens, OVCAR-4, 48 h, read-out: Log10 LC50, OVCAR-4 (converted)): 6.03 µM | Log10 GI50 (OVCAR-4; OVCAR-4): -5.94 log molar | Log10 TGI (OVCAR-4; OVCAR-4): -5.63 log molar | Log10 LC50 (OVCAR-4; OVCAR-4, 2880 min): -5.31 log molar | IC100 (OVCAR-5; Homo sapiens, OVCAR-5, 48 h, OVCAR-5, read-out: Log10 TGI (converted)): 3.47 µM | CC50 (OVCAR-5; Homo sapiens, OVCAR-5, 48 h, read-out: Log10 LC50, OVCAR-5 (converted)): 5.89 µM | GI50 (OVCAR-5; Homo sapiens, OVCAR-5, OVCAR-5, read-out: Log10 GI50 (converted)): 2 µM | Log10 GI50 (OVCAR-5; OVCAR-5): -5.73 log molar | Log10 TGI (OVCAR-5; OVCAR-5): -5.49 log molar | Log10 LC50 (OVCAR-5; OVCAR-5, 2880 min): -5.24 log molar | CC50 (MCF-7; Homo sapiens, MCF7, 48 h, read-out: Log10 LC50, MCF-7 (converted)): 5.37 µM | GI50 (MCF-7; Homo sapiens, MCF7, MCF-7; read-out: Log10 GI50 (converted)): 0.324 µM | GI50 (MCF-7; Homo sapiens, MCF7; MCF-7; read-out: Log10 GI50 (converted)): 1.55 µM | Log10 LC50 (MCF-7; MCF-7; 2880 min): -5.38 log molar | IC100 (SN-12C; Homo sapiens, SN12C, 48 h, SN-12C, read-out: Log10 TGI (converted)): 3.02 µM | CC50 (SN-12C; Homo sapiens, SN12C, 48 h, read-out: Log10 LC50, SN-12C (converted)): 5.5 µM | GI50 (SN-12C; Homo sapiens, SN12C, SN-12C, read-out: Log10 GI50 (converted)): 1.62 µM | Log10 GI50 (SN-12C; SN-12C): -5.94 log molar | Log10 TGI (SN-12C; SN-12C): -5.62 log molar | Log10 LC50 (SN-12C; SN-12C, 2880 min): -5.31 log molar | Log10 LC50 (HCT-15): -5.38 log molar | CC50 (SNB-19; Homo sapiens, SNB-19, 48 h, read-out: Log10 LC50, SNB-19 (converted)): 36.3 µM | GI50 (SNB-19; Homo sapiens, SNB-19, SNB-19): 3.8 µM | GI50 (SNB-19; Homo sapiens, SNB-19): 2.29 µM | Log10 LC50 (SNB-19; SNB-19, 2880 min): -4.65 log molar | IC100 (SNB-75; Homo sapiens, SNB-75, 48 h, SNB-75, read-out: Log10 TGI (converted)): 8.71 µM | CC50 (SNB-75; Homo sapiens, SNB-75, 48 h, read-out: Log10 LC50, SNB-75 (converted)): 30.2 µM | GI50 (SNB-75; Homo sapiens, SNB-75, SNB-75, read-out: Log10 GI50 (converted)): 2.95 µM | Log10 GI50 (SNB-75; SNB-75): -5.63 log molar | Log10 TGI (SNB-75; SNB-75): -5.25 log molar | Log10 LC50 (SNB-75; SNB-75, 2880 min): -4.73 log molar | IC100 (NCl-H23; Homo sapiens, 48 h, NCl-H23, read-out: Log10 TGI (converted)): 3.24 µM | CC50 (NCl-H23; Homo sapiens, NCI-H23, 48 h, read-out: Log10 LC50, NCl-H23 (converted)): 5.89 µM | Log10 GI50 (NCl-H23; NCl-H23): -5.99 log molar | Log10 TGI (NCl-H23; NCl-H23): -5.65 log molar | Log10 LC50 (NCl-H23; NCl-H23, 2880 min): -5.31 log molar | IC100 (MALMB-3M; Homo sapiens, 48 h, MALMB-3M, read-out: Log10 TGI (converted)): 3.24 µM | CC50 (MALMB-3M; Homo sapiens, 48 h, read-out: Log10 LC50, MALMB-3M (converted)): 5.75 µM | GI50 (MALMB-3M; Homo sapiens, MALMB-3M, read-out: Log10 GI50 (converted)): 1.78 µM | Log10 GI50 (MALMB-3M; MALMB-3M): -6.02 log molar | Log10 TGI (MALMB-3M; MALMB-3M): -5.67 log molar | Log10 LC50 (MALMB-3M; MALMB-3M, 2880 min): -5.33 log molar | IC100 (SK-MEL-5; Homo sapiens, SK-MEL-5, 48 h, SK-MEL-5, read-out: Log10 TGI (converted)): 2.82 µM | CC50 (SK-MEL-5; Homo sapiens, SK-MEL-5, 48 h, read-out: Log10 LC50, SK-MEL-5 (converted)): 5.5 µM | Log10 TGI (SK-MEL-5; SK-MEL-5): -5.73 log molar | Log10 LC50 (SK-MEL-5; SK-MEL-5, 2880 min): -5.36 log molar | CC50 (MCF-7/ADR; Homo sapiens, NCI/ADR-RES, 48 h, read-out: Log10 LC50, MCF-7/ADR (converted)): 7.08 µM | Log10 LC50 (MCF-7/ADR; MCF-7/ADR, 2880 min): -5.15 log molar and -5.40 log molar | IC100 (SF-295; Homo sapiens, SF-295, 48 h, SF-295, read-out: Log10 TGI (converted)): 7.08 µM | GI50 (SF-295; Homo sapiens, SF-295, SF-295, read-out: Log10 GI50 (converted)): 2.4 µM | Log10 GI50 (SF-295; SF-295): -5.70 log molar | Log10 TGI (SF-295; SF-295): -5.41 log molar | Log10 GI50 (HCC-2998; HCC-2998): -5.92 log molar | GI50 (HCC-2998; Homo sapiens, HCC 2998, HCC-2998, read-out: Log10 GI50 (converted)): 2.34 µM | Log10 GI50 (NCl-H226): -5.71 log molar | Log10 TGI (NCl-H226): -5.44 log molar | IC100 (NCl-H226; Homo sapiens, 48 h, read-out: Log10 TGI (converted)): 6.61 µM | GI50 (NCl-H226; Homo sapiens, read-out: Log10 GI50 (converted)): 2.75 µM | IC100 (NCl-H460; Homo sapiens, 48 h, NCl-H460, read-out: Log10 TGI (converted)): 3.98 µM | CC50 (NCl-H460; Homo sapiens, NCI-H460, 48 h, read-out: Log10 LC50, NCl-H460 (converted)): 8.13 µM | Log10 TGI (NCl-H460; NCl-H460): -5.70 log molar | Log10 LC50 (NCl-H460; NCl-H460, 2880 min): -5.33 log molar | CC50 (UACC-257; Homo sapiens, UACC-257, 48 h, read-out: Log10 LC50, UACC-257 (converted)): 6.61 µM | Log10 LC50 (UACC-257; UACC-257, 2880 min): -5.47 log molar | Log10 GI50 (IGROV-1): -5.75 log molar | Log10 LC50 (IGROV-1; 2880 min): -5.10 log molar | IC100 (SF-539; Homo sapiens, SF-539, 48 h, SF-539, read-out: Log10 TGI (converted)): 4.37 µM | CC50 (SF-539; Homo sapiens, SF-539, 48 h, read-out: Log10 LC50, SF-539 (converted)): 9.33 µM | GI50 (SF-539; Homo sapiens, SF-539, SF-539, read-out: Log10 GI50 (converted)): 2.04 µM | Log10 GI50 (SF-539; SF-539): -5.90 log molar | Log10 TGI (SF-539; SF-539): -5.60 log molar | Log10 LC50 (SF-539; SF-539, 2880 min): -5.30 log molar | Log10 LC50 (RPMI-8226): -4.47 log molar
